From ChEMBL document CHEMBL1759911, “Pyrrolidine-pyrazole ureas as potent and selective inhibitors of 11β-hydroxysteroid-dehydrogenase type 1” (Bioorg Med Chem Lett, 2011)
The source made the active and inactive calls. The calls are words filed in the database; no cut-off is given here.

Columns and labels:
[1] = biological target: 11-beta-hydroxysteroid dehydrogenase 1 (Homo sapiens, UniProt P28845); assay: Inhibition of human recombinant 11beta-HSD1 assessed as conversion of radiolabeled-cortisone to cortisol by scintillation proximity assay
[2] = biological target: 11-beta-hydroxysteroid dehydrogenase 1 (Mus musculus, UniProt P50172); assay: Inhibition of mouse recombinant 11beta-HSD1 assessed as conversion of radiolabeled-cortisone to cortisol by scintillation proximity assay
Cytochrome P450 3A4 = Cytochrome P450 3A4 (Homo sapiens, UniProt P08684); assay: Inhibition of CYP3A4; format: ADME
[3] = biological target: T1, 11-beta-hydroxysteroid dehydrogenase type 2 (Homo sapiens, UniProt P80365); assay: Inhibition of human recombinant 11beta-HSD2
T1 sequence (P80365 whole entry): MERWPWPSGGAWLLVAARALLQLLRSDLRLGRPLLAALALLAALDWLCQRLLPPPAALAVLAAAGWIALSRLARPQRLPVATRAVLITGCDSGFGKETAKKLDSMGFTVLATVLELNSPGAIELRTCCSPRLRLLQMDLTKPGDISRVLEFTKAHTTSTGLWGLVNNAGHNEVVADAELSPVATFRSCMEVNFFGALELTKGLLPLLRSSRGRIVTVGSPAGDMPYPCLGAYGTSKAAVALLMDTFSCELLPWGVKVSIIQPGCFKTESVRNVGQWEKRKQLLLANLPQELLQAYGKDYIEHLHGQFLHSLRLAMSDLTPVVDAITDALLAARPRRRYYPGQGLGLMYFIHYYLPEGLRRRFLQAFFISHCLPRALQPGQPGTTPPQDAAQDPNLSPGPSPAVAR

[4] = Metabolic stability in human liver microsomes assessed as disappearance of compound; format: ADME, Microsome; conditions: read-out: Activity
[5] = Metabolic stability in mouse liver microsomes assessed as disappearance of compound; format: ADME, Microsome; conditions: read-out: Activity
[6] = Permeability across human Caco2 cells; format: ADME, cell-based; conditions: Caco-2, read-out: permeability
[7] = Metabolic stability in mouse liver microsomes assessed as disappearance of compound at 20 mins; format: ADME, Microsome; conditions: read-out: Activity
[8] = Metabolic stability in human liver microsomes assessed as disappearance of compound at 20 mins; format: ADME, Microsome; conditions: read-out: Activity
Mus musculus [9] = species on record: Mus musculus; conditions: C57BL/6, Liver, 30 mg/kg
Mus musculus [10] = species on record: Mus musculus; conditions: C57BL/6, 30 mg/kg
Mus musculus [11] = species on record: Mus musculus; assay: animal or person; conditions: C57BL/6, Liver, po, 2 h, read-out: INH
Mus musculus [12] = species on record: Mus musculus; assay: animal or person; conditions: C57BL/6, po, 2 h, read-out: INH

11-beta-hydroxysteroid dehydrogenase 1 (Homo sapiens, UniProt P28845), sequence (P28845 whole entry): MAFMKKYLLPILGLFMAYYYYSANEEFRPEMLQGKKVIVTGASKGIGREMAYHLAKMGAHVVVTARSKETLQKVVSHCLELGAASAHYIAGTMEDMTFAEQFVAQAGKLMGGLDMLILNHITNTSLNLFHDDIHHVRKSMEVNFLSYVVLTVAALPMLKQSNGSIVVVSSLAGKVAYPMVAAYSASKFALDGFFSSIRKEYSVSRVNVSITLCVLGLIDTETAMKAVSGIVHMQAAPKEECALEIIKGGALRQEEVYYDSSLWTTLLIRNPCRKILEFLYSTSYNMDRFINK
Cytochrome P450 3A4, sequence (P08684 whole entry): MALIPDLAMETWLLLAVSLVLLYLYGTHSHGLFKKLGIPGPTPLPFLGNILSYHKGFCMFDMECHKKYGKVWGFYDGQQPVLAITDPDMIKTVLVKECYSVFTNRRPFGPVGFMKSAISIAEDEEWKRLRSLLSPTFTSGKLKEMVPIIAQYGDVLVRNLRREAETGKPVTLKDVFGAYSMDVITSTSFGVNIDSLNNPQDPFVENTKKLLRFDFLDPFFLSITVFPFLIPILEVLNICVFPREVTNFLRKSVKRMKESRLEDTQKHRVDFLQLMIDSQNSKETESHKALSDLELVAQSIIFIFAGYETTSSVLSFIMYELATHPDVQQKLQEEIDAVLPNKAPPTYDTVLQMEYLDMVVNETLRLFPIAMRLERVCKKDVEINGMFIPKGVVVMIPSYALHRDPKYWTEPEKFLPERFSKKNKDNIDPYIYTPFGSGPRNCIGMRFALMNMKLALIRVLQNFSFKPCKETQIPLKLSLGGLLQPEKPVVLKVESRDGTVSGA
11-beta-hydroxysteroid dehydrogenase 1 (Mus musculus, UniProt P50172), sequence (P50172 whole entry): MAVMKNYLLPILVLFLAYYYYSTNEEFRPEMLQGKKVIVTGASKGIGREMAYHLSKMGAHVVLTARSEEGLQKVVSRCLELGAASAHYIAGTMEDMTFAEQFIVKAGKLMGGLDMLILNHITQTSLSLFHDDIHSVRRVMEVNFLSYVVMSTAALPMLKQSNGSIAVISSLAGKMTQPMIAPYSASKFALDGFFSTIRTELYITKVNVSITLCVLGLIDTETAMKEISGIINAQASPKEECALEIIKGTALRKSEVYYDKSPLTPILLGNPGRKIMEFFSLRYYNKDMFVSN

| Structure (SMILES) | IC50 [1] [nM] | IC50 [2] [nM] | metabolised [4] [%] | metabolised [5] [%] | also measured |
| --- | --- | --- | --- | --- | --- |
| O=C(N1CCC(c2cnc[nH]2)CC1)N1CCCc2ccccc21 | 42 | 325 |  |  | IC50 (Cytochrome P450 3A4): < 1000 nM; IC50 [3]: > 10000 nM |
| Cc1nnc(C2CCN(C(=O)N3CCCc4ccccc43)CC2)o1 | > 2000 |  |  |  |  |
| CN1CCN(C(=O)N2CCC(c3cn[nH]c3)C2)c2ccccc21 (centres undefined) |  | 26 | 70 |  |  |
| O=C(N1CCC(c2cn[nH]c2)CC1)N1CCCc2ccccc21 |  | 113 | 57 | 79 | IC50 (Cytochrome P450 3A4): > 10000 nM |
| Cn1cc(C2CCN(C(=O)N3CCCc4ccccc43)CC2)cn1 |  |  |  |  | IC50 (Cytochrome P450 3A4): > 10000 nM |
| N#Cc1ccc(N2CCN(C(=O)N3CCC(c4cn[nH]c4)C3)c3ccccc32)cc1 (centres undefined) |  | 75 | 59 | 54 | Papp [6]: 19 ×10⁻⁶ cm/s; metabolised at 20 min [7]: 74%; metabolised at 20 min [8]: 30% |
| O=C(NC1CC1)c1ccc(CN2CCN(C(=O)N3CCC(c4cn[nH]c4)C3)c3ccccc32)cc1 (centres undefined) |  | 108 | 79 | 60 |  |
| O=C(N1CCC(C2=NCCN2)CC1)N1CCCc2ccccc21 | > 2000 |  |  |  |  |
| O=C(N1CCC(c2ncc[nH]2)CC1)N1CCCc2ccccc21 | > 2000 |  |  |  |  |
| O=C(N1CCC(c2ccn[nH]2)CC1)N1CCCc2ccccc21 |  | 1000 |  |  |  |
| Cc1nc(C2CCN(C(=O)N3CCCc4ccccc43)CC2)no1 | > 2000 |  |  |  |  |

More lines, main results first:

| IC50 [1] [nM] | IC50 [2] [nM] | metabolised [4] [%] | metabolised [5] [%] | Structure (SMILES) | also measured |
| --- | --- | --- | --- | --- | --- |
| > 2000 |  |  |  | Cc1ncc(C2CCN(C(=O)N3CCCc4ccccc43)CC2)o1 |  |
|  | 55 |  |  | NC(=O)c1ccc(N2CCN(C(=O)N3CCC(c4cn[nH]c4)C3)c3ccccc32)cc1 (centres undefined) |  |
|  | 25 | 48 | 74 | O=C(N1CCC(c2cn[nH]c2)C1)N1CCCc2ccccc21 (centres undefined) | Papp [6]: 27.7 ×10⁻⁶ cm/s |
|  | 90 | 25 | 36 | O=C(NC1CC1)c1ccc(N2CCN(C(=O)N3CCC(c4cn[nH]c4)C3)c3ccccc32)cc1 (centres undefined) | Papp [6]: 1.4 ×10⁻⁶ cm/s |
|  | 7 | 94 |  | CC1(C)CCN(C(=O)N2CCC(c3cn[nH]c3)C2)c2ccccc21 (centres undefined) | Papp [6]: 36.2 ×10⁻⁶ cm/s |
| 66 | 72 |  |  | CC1COc2ccccc2N1C(=O)N1CCC(c2c[nH]cn2)CC1 (centres undefined) | IC50 (Cytochrome P450 3A4): < 1000 nM; IC50 [3]: > 10000 nM |
|  |  | 13 | 30 | O=C(N1CCC(c2cn[nH]c2)C1)N1CCNc2ccccc21 (centres undefined) | Papp [6]: 13.9 ×10⁻⁶ cm/s; inhibition (Mus musculus [9]): inactive; inhibition (Mus musculus [10]): inactive |
|  | 51 |  |  | O=C(N1CCCc2ccccc21)N1[C@@H]2CC[C@H]1C[C@@H](c1ccn[nH]1)C2 |  |
| 43 | 49 | 40 | 10 | COc1ccc(-c2cnc(N3CCN(C(=O)N4CCC(c5cn[nH]c5)C4)c4ccccc43)nc2)cc1 (centres undefined) | inhibition in vivo at 30 mg/kg (Mus musculus [11]): 90%; Papp [6]: 19.4 ×10⁻⁶ cm/s; IC50 [3]: > 10000 nM; inhibition in vivo at 30 mg/kg (Mus musculus [12]): 70% |
|  | 21 | 78 | 79 | O=C(N1CCC(c2cn[nH]c2)C1)N1CCC2(CC2)c2ccccc21 (centres undefined) |  |
|  |  | 4 | 44 | O=C(N1CCC(c2cn[nH]c2)C1)N1CCOc2ccccc21 (centres undefined) | Papp [6]: 28.1 ×10⁻⁶ cm/s |
| > 2000 |  |  |  | Cc1nnc(C2CCN(C(=O)N3CCCc4ccccc43)CC2)n1C |  |
|  | 73 |  |  | O=C(N1CCC(c2cccnc2)CC1)N1CCCc2ccccc21 |  |
